Structures can show the parent of a compound that is named as a salt. Numbered stars: 1 amine (or outer) side, 2 acyl side, 3 side chain; on linkers, the order of the positions; unused ones are H or OH. Bridge positions count the residues as written; N and C are the ends. Square brackets hold non-standard residues; d marks the D form. Peptide text beside a SMILES is read from it. * marks the point of attachment. pTerphenylCO(4''-OnC5H11) = CCCCCOc1ccc(-c2ccc(-c3ccc(C(=O)*)cc3)cc2)cc1; Orn(4R-OH,5R-OH) = O=C([C@H](C[C@@H](O)[C@@H](O)N[*:3])N[*:1])[*:2]; hTyr(3S-OH,4S-OH) = N[C@H](C(=O)O)[C@H](O)[C@@H](O)c1ccc(O)cc1; Pro(3S-OH,4S-Me) = C[C@H]1CN[C@H](C(=O)O)[C@H]1O; Hyp = O=C(O)[C@@H]1C[C@@H](O)CN1
Key:
[1] = test system: NCI-H292 lung cancer cells; assay: FDA drug screening, complete media vs cholesterol-free media without statin (TABLE 1); format: cell-based, human
[2] = test system: NCI-H292 lung cancer cells; assay: FDA drug screening, complete media vs cholesterol-free media with simvastatin (TABLE 2); format: cell-based, human; details: for Cholesterol-free media + simvastatin (0.04 μM) / Complete Media: NCI-H292 cells
[3] = NCI-H292 cells, cholesterol-free media without statin, FDA drug library screen
[4] = NCI-H292 cells, complete media, FDA drug library screen
[5] = complete vs cholesterol-free media, >0 enhanced anti-cancer activity, about 0 neutral, <0 antagonist
[6] = drug in cholesterol-free media with simvastatin 0.04 μM
[7] = complete media vs cholesterol-free media + simvastatin (0.04 μM), >0 enhanced anti-cancer activity, about 0 neutral, <0 antagonist
[8] = FDA drug library screen, cholesterol-free media with simvastatin 0.04 μM
[9] = FDA drug library screen, complete media
[10] = NCI-H292 cells, cholesterol-free media without statin
[11] = complete vs cholesterol-free media, greater than 0 enhanced anti-cancer activity, about 0 neutral, below 0 antagonists
[12] = complete media minus cholesterol-free media + simvastatin, >0 enhanced anti-cancer activity, about 0 neutral, <0 antagonist
[13] = FDA library drug in cholesterol-free media with simvastatin 0.04 μM
[14] = FDA library drug in complete media
[15] = Complete minus Cholesterol-free, greater than 0 enhanced anti-cancer activity, about 0 neutral, below 0 antagonist
[16] = NCI-H292 cells, FDA drug library screen, cholesterol-free media without statin
[17] = NCI-H292 cells, FDA drug library screen, complete media
[18] = Complete minus Cholesterol-free, >0 enhanced anti-cancer activity, about 0 neutral, <0 antagonist
[19] = cholesterol-free media with simvastatin 0.04 μM, cell growth value in FDA drug screen
[20] = Complete minus Cholesterol-free, greater than 0 enhanced anti-cancer activity, about 0 neutral, below 0 antagonists
[21] = NCI-H292 cells in cholesterol-free media without statin
[22] = NCI-H292 cells in complete media

## CCOC(=O)[C@H](CCc1ccccc1)N[C@H]1CCCN2CCC[C@@H](C(=O)O)N2C1=O [Cilazapril (monohydrate)]
[1]; [3]
  Cholesterol-free: 0.8411
[1]; [4]
  Complete: 0.9896
[1]; [5]
  Difference: 0.15
[2]; [6]
  Cholesterol-free media + simvastatin (0.04 μM): 1.266
[2]; drug in complete media
  Complete Media: 1.104
[2]; [7]
  Difference: −0.16

## COC(=O)CCc1ccc(OCC(O)CNC(C)C)cc1 (stereo not shown) [Esmolol (hydrochloride)]
[1]; [3]
  Cholesterol-free: 0.7243
[1]; [4]
  Complete: 0.9329
[1]; [5]
  Difference: 0.21
[2]; [8]
  Cholesterol-free media + simvastatin (0.04 μM): 1.21
[2]; [9]
  Complete Media: 1.054
[2]; [7]
  Difference: −0.16

## OC(CCCN1CCCCC1)(c1ccccc1)c1ccccc1 [Diphenidol (hydrochloride)]
[1]; [10]
  Cholesterol-free: 1.3
[1]; NCI-H292 cells, complete media
  Complete: 0.8776
[1]; [11]
  Difference: −0.42
[2]; [8]
  Cholesterol-free media + simvastatin (0.04 μM): 0.9412
[2]; [9]
  Complete Media: 1.206
[2]; [12]
  Difference: 0.26

## O.O.O.O.O.O.O.O=C1N=C([O-])CN1/N=C/c1ccc(-c2ccc([N+](=O)[O-])cc2)o1.O=C1N=C([O-])CN1/N=C/c1ccc(-c2ccc([N+](=O)[O-])cc2)o1.[Na+].[Na+] [Dantrolene (sodium hemiheptahydrate)]
[1]; [10]
  Cholesterol-free: 1.274
[1]; NCI-H292 cells, complete media
  Complete: 0.9468
[1]; [11]
  Difference: −0.33
[2]; [13]
  Cholesterol-free media + simvastatin (0.04 μM): 1.565
[2]; [14]
  Complete Media: 1.218
[2]; [7]
  Difference: −0.35

## Cc1ccc(Sc2ccccc2N2CCNCC2)c(C)c1 [Vortioxetine]
[1]; [3]
  Cholesterol-free: 0.5855
[1]; [4]
  Complete: 0.993
[1]; [5]
  Difference: 0.41
[2]; [13]
  Cholesterol-free media + simvastatin (0.04 μM): 1.222
[2]; [14]
  Complete Media: 0.843
[2]; [7]
  Difference: −0.38

## COc1ccccc1OCCNCC(O)COc1cccc2[nH]c3ccccc3c12 (stereo not shown) [Carvedilol]
[1]; [15]
  Difference: −0.18
[1]; [16]
  Cholesterol-free: 1.133
[1]; [17]
  Complete: 0.9579
[2]; [13]
  Cholesterol-free media + simvastatin (0.04 μM): 1.448
[2]; [14]
  Complete Media: 0.9665
[2]; [7]
  Difference: −0.48

## O=C(O)c1cccnc1 [Niacin]
[1]; [18]
  Difference: −0.27
[1]; [10]
  Cholesterol-free: 1.266
[1]; NCI-H292 cells, complete media
  Complete: 0.9994
[2]; [19]
  Cholesterol-free media + simvastatin (0.04 μM): 1.244
[2]; complete media, cell growth value in FDA drug screen
  Complete Media: 1.362
[2]; [12]
  Difference: 0.12

## CC[N+](CC)(CC)CCOc1cccc(OCC[N+](CC)(CC)CC)c1OCC[N+](CC)(CC)CC [Gallamine Triethiodide]
[1]; [18]
  Difference: −0.28
[1]; [10]
  Cholesterol-free: 1.311
[1]; NCI-H292 cells, complete media
  Complete: 1.029
[2]; [13]
  Cholesterol-free media + simvastatin (0.04 μM): 1.372
[2]; [14]
  Complete Media: 1.027
[2]; [7]
  Difference: −0.35

## NS(=O)(=O)c1cc2c(cc1Cl)N=C(CSCc1ccccc1)NS2(=O)=O [Benzthiazide]
[1]; [15]
  Difference: −0.08
[1]; [16]
  Cholesterol-free: 0.9561
[1]; [17]
  Complete: 0.8751
[2]; [19]
  Cholesterol-free media + simvastatin (0.04 μM): 1.107
[2]; [12]
  Difference: 0.04

## CC1=C(/C=C/C(C)=C/C=C/C(C)=C/C=C/C=C(C)/C=C/C=C(C)/C=C/C2=C(C)CCCC2(C)C)C(C)(C)CCC1 [β-Carotene]
[1]; [20]
  Difference: −0.67
[1]; [21]
  Cholesterol-free: 1.322
[1]; [22]
  Complete: 0.6506
[2]; [13]
  Cholesterol-free media + simvastatin (0.04 μM): 0.923
[2]; [14]
  Complete Media: 0.6081
[2]; [7]
  Difference: −0.31

## CC(=O)OCC(=O)[C@@]1(O)CC[C@H]2[C@@H]3CCC4=CC(=O)C=C[C@]4(C)[C@H]3[C@@H](O)C[C@@]21C [Prednisolone acetate]
[1]; [10]
  Cholesterol-free: 0.9263
[1]; NCI-H292 cells, complete media
  Complete: 0.6003
[1]; [11]
  Difference: −0.33
[2]; [8]
  Cholesterol-free media + simvastatin (0.04 μM): 0.7463
[2]; [9]
  Complete Media: 0.6367
[2]; [7]
  Difference: −0.11

## CCC(=O)NS(=O)(=O)c1ccc(-c2c(-c3ccccc3)noc2C)cc1 [Parecoxib]
[1]; [18]
  Difference: −0.20
[1]; [10]
  Cholesterol-free: 0.9171
[1]; NCI-H292 cells, complete media
  Complete: 0.7131
[2]; [6]
  Cholesterol-free media + simvastatin (0.04 μM): 0.9747
[2]; drug in complete media
  Complete Media: 0.7244
[2]; [7]
  Difference: −0.25

## CCCCCOc1ccc(-c2ccc(-c3ccc(C(=O)N[C@H]4C[C@@H](O)[C@@H](O)NC(=O)[C@@H]5[C@@H](O)[C@@H](C)CN5C(=O)[C@H]([C@@H](C)O)NC(=O)[C@H]([C@H](O)[C@@H](O)c5ccc(O)cc5)NC(=O)[C@@H]5C[C@@H](O)CN5C(=O)[C@H]([C@@H](C)O)NC4=O)cc3)cc2)cc1 [Anidulafungin] ({pTerphenylCO(4''-OnC5H11)}-[Orn(4R-OH,5R-OH)]T[Hyp][hTyr(3S-OH,4S-OH)]T[Pro(3S-OH,4S-Me)]; lactam 1-C)
[1]; Complete minus Cholesterol-free, […]
  Difference: −0.23
[1]; [10]
  Cholesterol-free: 1.481
[1]; NCI-H292 cells, complete media
  Complete: 1.247
[2]; [8]
  Cholesterol-free media + simvastatin (0.04 μM): 1.251
[2]; complete media minus cholesterol-free media + simvastatin (0.04 μM), […]
  Difference: −1.03

## CN(C)CCOC(=O)C(c1ccccc1)C1(O)CCCC1 (stereo not shown) [Cyclopentolate (hydrochloride)]
[1]; [20]
  Difference: −0.56
[1]; [21]
  Cholesterol-free: 1.412
[1]; [22]
  Complete: 0.8527
[2]; [6]
  Cholesterol-free media + simvastatin (0.04 μM): 1.064
[2]; drug in complete media
  Complete Media: 0.8727
[2]; [7]
  Difference: −0.19

Reference: patent US20250144067A1, “PERSONALIZED STARVATION THERAPY FOR CANCER” (Faeth Therapeutics, Inc., priority 2021, published 2025)
